According to patent US8569511B2, “Substituted 3-(1H-benzo[d]imidazol-2-yl)-1H-indazole analogs as inhibitors of the PDK1 kinase” (University of Utah Research Foundation, priority 2011, dated 2013):
pIC50: −log10 of the molar value. Where two headings read alike, the source gives them in different places.

Columns and labels:
HS578T cell line = assay: Cell viability after PTEN shRNA knockdown; type: cell-based; conditions: Homo sapiens, Hs-578T
Procedure: The lentiviral particles with PTEN shRNA or scrambled siRNA (ssi RNA) were purchased from Thermo Scientific. The cells were seeded in a 24-well plate and incubated overnight in RPMI full media. The media was removed and the cells were transfected with either siRNA or ssiRNA particles in serum/antibiotic free RPMI media. Six hours post-transduction, 1 ml of full media (serum plus penicillin/streptomycin) was added and the cells were incubated overnight. At 48 hours post-transduction fresh media with puromycin was added. The media was replaced with fresh puromycin containing media every 2 days. qPCR and western blot analysis was used to evaluate the level of PTEN knockdown.
AN3-CA (PTEN-deficient), RL95-2 (PTEN-deficient), and HEC-1A (PTEN-wild type) cells were plated in 45 μl of RPMI-1640 media supplemented with 10% FBS and 1% Pen/Strep at a density of 1000 cells per well in white 384-well plates. Cells were allowed to attach by incubation overnight at 37° C. and 5% CO2. Test compounds were diluted to 10× concentrations in RPMI-1640 media (containing 3% DMSO) and 5 μl 1 of these dilutions were added in triplicate to the appropriate wells containing the cells. The plates containing the drug-treated cells and appropriate controls were incubated for 96 hours. At the end of the incubation, 40 μl of ATP-lite (PerkinElmer, Inc., Waltham, Massachussetts) reagent were added to each well and luminescence signal was measured on an EnVision microplate reader.
In the figures, cell viability is shown as “Toxicity” and the cell viability assay was carried out as described above.

[1] = tested on: phosphorylation of the ribosomal protein s6 in AN3-CA cells; assay: In-cell western, phosphorylation of ribosomal protein s6; type: cell-based; conditions: Homo sapiens, 2 hours
Procedure: Cells were washed with PBS and whole cell lysates were prepared by incubating cells in […] (Invitrogen Corporation, Carlsbad, Calif.) supplemented with Protease Inhibitor Cocktail (Roche Applied Science, a division of Roche Diagnostics Corporation, Indianapolis, Ind.) and Phosphatase Inhibitor Cocktail (Roche) on ice for 30 minutes. After centrifuging the lysates at 12,000 rpm for 10 minutes at 4° C., the supernatant was collected. Protein concentration was determined using BCA Assay. The same amounts of protein were run on NuPAGE 4-12% Bis-Tris Gel, and then transferred onto a PVDF membrane. After blocking with Odyssey Blocking Buffer for 1 hour at room temperature, the membrane was incubated with primary antibodies (Cell Signaling Technology, Inc., Danvers, Massachussetts) overnight at 4° C. followed by 40 minute incubation with IRDye secondary antibody. The membrane was scanned using Odyssey Infrared Imaging System. […]
Briefly, ribosomal protein S6 was detected using differentially labeled antibodies specific for either total S6 protein or the phosphorylated form of the protein. In-cell detection with visual overlay of the signals for each antibody, e.g. total ribosomal protein s6 (red) and phospho-ribosomal protein s6 (green), allowed simultaneous detection and quantitation. Quantitation of signal intensity allowed determination of IC50 values for the test compounds.

AN3-CA cells = assay: Mouse subcutaneous xenograft tumor model, tumor volume; type: in vivo, athymic nude mice; conditions: 50 mg/kg IP, daily Monday through Friday for two weeks
Procedure: The in vivo effects of compounds were determined in a mouse subcutaneous xenograft tumor model wherein AN3-CA cells were implanted subcutaneously into the hind flank of athymic nude mice. Briefly, seven-week-old mice were injected with 2×10^6 AN3-CA cells on the right hind flank. […] The vehicle for these studies was 20% DMSO, 20% cremophor, and 60% water. The test compound was administered on daily schedule (Monday through Friday) for two weeks at a concentration of 50 mg/kg by intraperitoneal (“IP”) injection. The mice were sacrificed and the tumors were excised for western blot analysis. Tumor volume was determined using the formula L×W2×0.5, where L is the longest length, and W is the shortest length. Tumor volume and body weight was measured twice a week.
The study was carried out as described above for 2,2-difluoro-N-(3-(5-morpholino-1H-benzo[d]imidazol-2-yl)-1H-indazol-5-yl)cyclopropanecarboxamide, except that the test compound used was 2,2-difluoro-N-(3-(5-(2-methylmorpholino)-1H-benzo[d]imidazol-2-yl)-1H-indazol-5-yl)cyclopropanecarboxamide. Data are shown in FIGS. 10A and 10B for the effect of the compound on tumor volume and body weight, respectively.

[2] = Pharmacokinetics in mice (iv and po); type: in vivo; conditions: for Vd: read-out: Vss
Procedure: Pharmacokinetic parameters were determined by dosing mice by oral (“po”) and intravenous (“iv”) administration of two representative disclosed compounds.
The vehicle was 1% DMSO, 10% ethanol, 35% PEG 400, and the balance H2O. Blood was collected (about 50 μl per individual animal) into heparin-containing collection tubes, and cells were removed by centrifugation. The concentration of compound was determined at the indicated time points for each sample using mass spectrometry. […] PK parameters were calculated using WinNonLin (Pharsight Products, Saint Louis, Mo.). […] The level detected at 0.08 hr was 9 ng/ml±5.0 ng/ml.
Vehicle, sample collection and analysis is as described above.

PDK1 = PDK1 (Homo sapiens (Human), UniProt O15530); assay: PDK1 fluorometric activity assay performed by Life Technologies; type: biochemical; conditions: for pIC50: fluorometric assay performed by Life Technologies (Table IV), read-out: PDK1 Kinase assays (IC50)
Procedure: PDK1 biochemical activity was measured by a fluorometric assay performed by Life Technologies (Grand Island, N.Y.). The assay conditions for PDK1 are as follows. The 2×PDK1/Ser/Thr-07 mixture is prepared in 50 mM Tris pH 8.5, 0.01% BRIJ-35, 10 mM MgCl2, 1 mM EGTA, 0.02% NaN3.
The kinase specificity was measured using fluorometric assays performed by Life Technologies (Grand Island, N.Y.). Assay conditions vary for each kinase and are available from Life Technologies, Grand Island, NY. For example, the assay conditions for PDK1 are as follows. The 2×PDK1/Ser/Thr-07 mixture is prepared in 50 mM Tris pH 8.5, 0.01% BRIJ-35, 10 mM MgCl2, 1 mM EGTA, 0.02% NaN3.

[3] = PTEN knockdown shRNA, read-out: IC50 for cell viability, PTEN knockdown shRNA cells
[4] = mouse, plasma, po (Table VIII, dose not given)

Sequence of PDK1 (O15530 whole entry): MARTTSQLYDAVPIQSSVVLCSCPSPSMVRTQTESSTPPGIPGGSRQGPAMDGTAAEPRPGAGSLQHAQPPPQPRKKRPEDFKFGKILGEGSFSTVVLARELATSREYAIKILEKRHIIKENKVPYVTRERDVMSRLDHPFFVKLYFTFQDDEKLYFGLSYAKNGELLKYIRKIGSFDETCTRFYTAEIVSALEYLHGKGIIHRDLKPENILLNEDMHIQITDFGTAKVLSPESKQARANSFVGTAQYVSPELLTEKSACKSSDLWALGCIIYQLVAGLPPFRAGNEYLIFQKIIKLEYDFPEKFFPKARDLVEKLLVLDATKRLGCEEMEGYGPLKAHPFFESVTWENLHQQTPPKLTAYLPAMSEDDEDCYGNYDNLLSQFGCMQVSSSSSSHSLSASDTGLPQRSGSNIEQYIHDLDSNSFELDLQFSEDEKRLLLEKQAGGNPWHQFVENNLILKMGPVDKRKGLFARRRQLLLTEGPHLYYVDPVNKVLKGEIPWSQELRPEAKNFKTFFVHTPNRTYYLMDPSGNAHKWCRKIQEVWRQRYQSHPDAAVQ

SMILES	pIC50 (HS578T cell line; [3])	pIC50 [1]	Effect on tumor burden (tumor volume) compared to the vehicle control (AN3-CA cells)	AUC(0-t) ([2]; mouse, plasma, iv, 5.0 mg/kg) [ng·h/mL]	Cmax ([2]; mouse, plasma, iv, 5.0 mg/kg) [ng/mL]	Tmax ([2]; mouse, plasma, iv, 5.0 mg/kg) [min]	clearance ([2]; mouse, plasma, iv, 5.0 mg/kg) [mL/min/kg]	half-life ([2]; mouse, plasma, iv, 5.0 mg/kg) [min]	Vd ([2]; mouse, plasma, iv, 5.0 mg/kg) [L/kg]	Cmax [2, 4] [ng/mL]	Tmax [2, 4] [min]	concentration at 0.08 hr ([2]; mouse, plasma, po, at 0.08 hr, read-out: Level detected after oral administration) [ng/mL]	Level after oral administration (in words) ([2]; po, after 0.08 hr)	pIC50 (PDK1)	Kinase profiling activity against PDK1 (in words) (PDK1; profiling at 500 nM, FIG. 8)	pIC50 (HS578T cell line; control (scrambled) treated cells, read-out: IC50 for cell viability, control treated cells)	AUC(0-t) ([2]; mouse, plasma, po, 30 mg/kg) [ng·h/mL]	Cmax ([2]; mouse, plasma, po, 30 mg/kg) [ng/mL]	Tmax ([2]; mouse, plasma, po, 30 mg/kg) [min]	bioavailability ([2]; mouse, plasma, po, 30 mg/kg) [%]
O=C(Nc1ccc2[nH]nc(-c3nc4ccc(N5CCOCC5)cc4[nH]3)c2c1)C1CC1(F)F (stereo not drawn) [Compound 1, 2,2-difluoro-N-(3-(5-morpholino-1H-benzo[d]imidazol-2-yl)-1H-indazol-5-yl)cyclopropanecarboxamide]	5.92	7.12	modest effect on tumor burden	516	1840	4.8	161	24	1.6	9	15	9	below the limit of detection	7.10	good activity					
CC1CN(c2ccc3nc(-c4n[nH]c5ccc(NC(=O)C6CC6(F)F)cc45)[nH]c3c2)CCO1 (stereo not drawn) [Compound 2, 2,2-difluoro-N-(3-(5-(2-methylmorpholino)-1H-benzo[d]imidazol-2-yl)-1H-indazol-5-yl)cyclopropanecarboxamide]	6.10	7.12	profound and significant effect on tumor burden	1280	4530	4.8	65	24	0.63					7.03		5.66	244	53	15	19
